We go through 21 molecules from ChEMBL document CHEMBL4811249, “Semisynthesis of Dolabellane Diterpenes: Oxygenated Analogues with Increased Activity against Zika and Chikungunya Viruses” (J Nat Prod, 2021).

Active and inactive are the calls of the source. The calls are words filed in the database; no cut-off is given here.

For orientation: inhibition means the percentage by which the read-out fell short of the control. As a reminder, the EC50 is the concentration needed to bring the measured effect to its halfway point. What is called CC50 is the concentration that lowers cell viability or growth by half.

Data set [1] deals with Chikungunya virus. Put plainly: Antiviral activity against CHIKV infected in African green monkey Vero cells assessed as inhibition of viral replication at 20 uM measured after 4 days relative to control. Format: functional. The following applies: 96 h, time 4 day; for inhibition at 20 µM: Chikungunya virus, Vero.
Data set [2] concerns Zika virus. Put plainly: Antiviral activity against Zika virus infected in African green monkey Vero cells assessed as inhibition of viral adsorption at 20 uM measured after 4 days by crystal violet staining based assay relative to control. It counts as functional. The following applies: 96 h, time 4 day.
Data set [3] relates to Zika virus. Put plainly: Antiviral activity against Zika virus infected in African green monkey Vero cells assessed as inhibition of viral replication at 20 uM measured after 4 days relative to control. Format: functional. The following applies: time 4 day, 96 h; for inhibition (INH): 20 µM; for inhibition at 20 µM: Zika virus, Vero.
For data set [4], the system named is Zika virus. Kind of data set: Antiviral activity against Zika virus infected in African green monkey Vero cells assessed as reduction in viral replication by measuring viral titre after 72 hrs by plaque reduction assay. It counts as functional, organism-based. In general terms: In a plaque reduction assay, fewer plaques than in the control indicate reduced infectivity or spread.

The nature of data set [5]: (§1) Cytotoxicity against African green monkey Vero cells by MTT assay. Format: cell-based. The following applies: chlorocebus sabaeus, Vero cells. In general terms: Tetrazolium dyes change colour on reduction, which living cells bring about.
Data set [6] in a line: Selectivity index, ratio of CC50 for African green monkey Vero cells to EC50 for Zika virus. It counts as toxicity. Particulars: read-out: Ratio CC50/EC50.
Data set [7] deals with Vero. The description is as §1. Format: cell-based. Particulars: chlorocebus sabaeus, vero.
Data set [8] deals with Zika virus. Put plainly: Virucidal activity against Zika virus infected in African green monkey Vero cells at 20 uM measured after 4 hrs relative to control. Format: functional.
The test system of data set [9] is Chikungunya virus. Put plainly: Antiviral activity against CHIKV infected in African green monkey Vero cells assessed as reduction in viral replication by measuring viral titre after 72 hrs by plaque reduction assay. Format: functional, organism-based.
Data set [10] can be described thus: Selectivity index, ratio of CC50 for African green monkey Vero cells to EC50 for CHIKV. Particulars: read-out: Ratio CC50/EC50. It counts as toxicity.
Data set [11] deals with Chikungunya virus. Kind of data set: Virucidal activity against CHIKV infected in African green monkey Vero cells at 5 to 20 uM measured after 4 hrs. The following applies: dose 5-20 µM. It counts as functional, organism-based.
Data set [12] concerns Chikungunya virus. Put plainly: Antiviral activity against CHIKV infected in African green monkey Vero cells assessed as inhibition of viral adsorption at 20 uM measured after 4 days by crystal violet staining based assay relative to control. Format: functional. Particulars: 96 h, time 4 day.

With `COC1(C)CC[C@@H](O)[C@]2(C)CC[C@@H]3C(=C(C)C)C(=O)C[C@@]3(C)C[C@@H]12` (relative stereo; 18), the results for the inhibition at 20 µM in data set [1] and in data set [2] were 25% and above 90%, respectively. In addition, the “inhibition (INH)” value in data set [3] is on record as 100%. The EC50 in data set [4] turned out to be 1.8 µM. Also, the CC50 in [5] is 730 µM. The selectivity ratio in [6] came out at 410.

For `CC(=O)OC/C1=C\CC/C(C)=C/C[C@]2(C)CC(=O)C(=C(C)C)[C@H]2CC1`, the inhibition at 20 µM in [1] turned out to be 0%; in [3], 30%. The same molecule displayed a CC50 in data set [5] of 250 µM.

On to `C=C(C)C1=CC[C@@]2(C)C[C@H]3O[C@]3(C)CC[C@H]3O[C@]3(C)CC[C@H]12`, for which the inhibition at 20 µM in data set [1] was determined as 0%; in data set [3], 60%. Further, the CC50 in data set [5] is 480 µM.

Regarding `COC1(C)CC[C@@H](O)[C@]2(C)CC[C@@H]3C(=C(C)C)C(=O)C[C@@]3(C)C[C@@H]12` (relative stereo; 19), the “inhibition (INH)” value worked out at 40% in data set [1] (20 µM) and 59% in [3]. It took 650 µM to reach half-maximal cytotoxicity in [7] (CC50).

As to `CC(C)=C1[C@H](O)C[C@@]2(C)C/C=C(\C)CC[C@H]3O[C@]3(C)CC[C@H]12`, the inhibition at 20 µM in [1] stood at 33%; in data set [3] it was 30%. In addition, the CC50 in [5] was determined as 430 µM.

Regarding `CC(C)=C1C(=O)C[C@@]2(C)C/C=C(\C=O)CC[C@H]3O[C@]3(C)CC[C@H]12`, the figures for the inhibition at 20 µM in data set [1] and in data set [3] were 39% and 99%, respectively. Besides, the Activity in [8] was determined as 90%. The EC50 in data set [4] came out at 0.9 µM. For the same molecule, in data set [5], the CC50 was 750 µM. The selectivity ratio in [6] came out at 830.

With `CC(C)=C1[C@H]2CC/C(C)=C/CC/C(C)=C/C[C@]2(C)C[C@@H]1O`, the inhibition at 20 µM was 0% in [1] and 51% in data set [3]. Further, the CC50 in data set [5] is 190 µM.

For `C[C@H]1/C=C/[C@@]2(C)CC[C@@H](C(C)(C)O)[C@@H]2[C@@H](O)C[C@](C)(O)/C=C/C1`, the inhibition at 20 µM in [1] turned out to be 35%; in [3] it was 50%. For the same molecule, the CC50 in data set [5] stood at 400 µM.

Regarding `CC(C)=C1[C@H]2CC[C@@]3(C)O[C@@H]3CC[C@@]3(C)O[C@@H]3C[C@]2(C)C[C@@H]1O`, the EC50 in [9] amounted to 0.7 µM; in [4], 8.9 µM. Moreover, the inhibition at 20 µM came to 98% in data set [1] and 81% in data set [3]. Half-maximal cytotoxicity in data set [5] (CC50) was put at 1000 µM. Further, the selectivity ratio in data set [10] amounted to 1400; in data set [6], 110.

With `CC(C)=C1C(=O)C[C@@]2(C)C/C=C(\C)CC/C=C(\C)CC[C@H]12` [DOLABELLANE], the inhibition at 20 µM in data set [1] and in [3] was 0% in each case. Moreover, the CC50 in data set [5] was found to be 150 µM.

As to `CC(C)=C1C(=O)C[C@@]2(C)C/C=C(\C)CC/C=C(\C=O)CC[C@H]12`, the results for the inhibition at 20 µM in data set [1] and in [3] were 29% and 0%, respectively. The CC50 in data set [5] worked out at 100 µM.

As to `CC(=O)O[C@@H]1C[C@@]2(C)C/C=C(\C)CC/C=C(\C)CC[C@@H]2C1=C(C)C`, in data set [9], the EC50 came out at 1.2 µM. Also, the inhibition at 20 µM in data set [1] is 99%; in data set [3], 62%; in data set [12], above 90%. For the same molecule, the result in [11] was Active. This molecule also gave a CC50 in data set [5] of 100 µM. Besides, the selectivity ratio in [10] came out at 83.

With `CC1=CC[C@@H](O)[C@]2(C)CC[C@@H]3C(=C(C)C)C(=O)C[C@@]3(C)C[C@@H]12`, the inhibition at 20 µM in [1] amounted to 65%; in data set [3] it was 99%. The EC50 in [4] is 2.1 µM. In data set [5], this molecule displayed a CC50 of 580 µM. Also, the selectivity ratio in data set [6] was 280.

In the case of `CC(C)=C1C(=O)C[C@@]2(C)C[C@H]3O[C@]3(C)CC[C@H]3O[C@]3(C)CC[C@H]12`, the inhibition at 20 µM in [1] was determined as 0%; in data set [3], 56%. In [5], this molecule gave a CC50 of 960 µM.

Take `CC(C)=C1C(=O)C[C@@]2(C)C/C=C(\C)CC[C@H]3O[C@]3(C)CC[C@H]12`: the EC50 in data set [9] turned out to be 1.2 µM. Also, the values for the inhibition at 20 µM in data set [1], in data set [3] and in [12] were 99%, 38% and above 90%, respectively. Further, the result in [11] was Active. This molecule also yielded a CC50 in [5] of 530 µM. For the same molecule, in data set [10], the selectivity ratio came out at 440.

On to `NC(=O)c1ncn([C@@H]2O[C@H](CO)[C@@H](O)[C@H]2O)n1` [RIBAVIRIN], for which the inhibition at 20 µM in [1] is 97%; in [3] it was 93%.

In the case of `CC(C)=C1C(=O)C[C@@]2(C)C/C=C(\CO)CC[C@H]3O[C@]3(C)CC[C@H]12`, the EC50 in data set [9] turned out to be 13 µM. The inhibition at 20 µM in [1] is 71%; in [3] it was 60%. The molecule further displayed a CC50 in data set [5] of 800 µM. Moreover, the selectivity ratio in [10] was 61.

Turning to `CC(C)=C1C(=O)C[C@@]2(C)C[C@H]3O[C@]3(C)CC/C=C(\C)CC[C@H]12`, the EC50 in [9] is 9.5 µM. Moreover, the results for the inhibition at 20 µM in data set [1] and in [3] were 82% and 65%, respectively. The same molecule registered a CC50 in [5] of 470 µM. The selectivity ratio in [10] is 50.

Regarding `C=C(C)C1=CC[C@@]2(C)C/C=C(\C)CC/C=C(\CO)CC[C@H]12`, the figures for the inhibition at 20 µM in data set [1] and in data set [3] were 0% and 61%, respectively. The molecule also returned a CC50 in data set [5] of 600 µM.

For `CC(C)=C1[C@H]2CC[C@@]3(C)O[C@@H]3CC/C(C)=C/C[C@]2(C)C[C@@H]1O`, the results for the inhibition at 20 µM in data set [1] and in [3] were 45% and 99%, respectively. Besides, the Activity in data set [8] is listed as 80%. The EC50 in [4] came to 1.2 µM. This molecule also had a CC50 in data set [5] of 580 µM. Further, in data set [6], the selectivity ratio came out at 480.

Regarding `CC(C)=C1[C@H](O)C[C@@]2(C)C[C@H]3O[C@]3(C)CC[C@H]3O[C@]3(C)CC[C@H]12`, the inhibition at 20 µM in data set [1] amounted to 44%; in data set [3] it was 49%. Also, the CC50 in data set [5] came to 960 µM.
